Data reported in paper PMC7180491, “Synthesis and Biological Evaluation of Novel (thio)semicarbazone-Based Benzimidazoles as Antiviral Agents against Human Respiratory Viruses” (Molecules, 2020).
Entries after “also recorded” stand apart in the source; their conditions may differ. Where two headings read alike, the source gives them in different places.

How the values were obtained:
human coronavirus 229E = assay: Antiviral assay against human coronavirus 229E in HEL cells, MTS readout; assay type: cell-based
[1] = test system: Respiratory syncytial virus (RSV; strain Long); assay type: cell-based; settings: read-out: Anti-RSV EC50, microscopic method
[2] = test system: Influenza A/H3N2 (A/HK/7/87); assay: microbe, parasite or virus in culture; assay type: cell-based, human influenza virus; settings: read-out: Antiviral EC50 Influenza A/H3N2
[3] = test system: Respiratory syncytial virus (RSV; strain Long); assay: microbe, parasite or virus in culture; assay type: cell-based
[4] = test system: Influenza A/H1N1 (A/Ned/378/05); assay: microbe, parasite or virus in culture; assay type: cell-based, human influenza virus; settings: read-out: Antiviral EC50 Influenza A/H1N1
in vitro [5] = settings: human
in vitro [6] = settings: dog
in vitro [7] = settings: human; remark: listed apart in the source
in vitro [8] = settings: African green monkey
[9] = test system: four mammalian cell lines
[10] = Human coronavirus 229E, MTS assay, HEL cells
[11] = human respiratory syncytial virus, HEp-2, read-out: Antiviral EC50 RSV

## CC(=NNC(N)=O)c1ccc2c(c1)nc(Cc1ccc(Cl)cc1)n2CCCN(C)C
other
  melting point: 211 to 212.5 °C

## CC(=NNC(N)=S)c1ccc2c(c1)nc(Cn1nc3ccccc3n1)n2CCN(C)C
other
  melting point: 214 to 217 °C

## CC(=NNC(N)=O)c1ccc2c(c1)nc(Cn1nc3ccccc3n1)n2CCN(C)C
other
  melting point: 209 to 212 °C

## CCN(CC)CCCn1c(Cc2ccc(OC)cc2)nc2cc(C(C)=NNC(N)=S)ccc21
other
  melting point: 180.7 to 182.9 °C

## 2-(1-{2-[(2H-Benzo[d][1,2,3]triazol-1-yl)methyl]-1-[3-(N,N-dimethylamino)propyl]-1H-benzo[d]imidazol-5-yl}ethylidene)hydrazine-1-carbothioamide [Compound 22]
HEL cells
  CC50: 100 µM
MDCK cells
  CC50: > 100 µM
Human coronavirus 229E
  EC50: > 100 µM
Vero cells
  CC50: > 100 µM
[1]
  EC50: 8.9 µM
[2]
  EC50: > 100 µM
[3]; read-out: Antiviral EC50 RSV
  EC50: 7 µM
[4]
  EC50: 41 µM
Hep-2 cells
  CC50: > 100 µM

## 2-(1-{2-[(2H-Benzo[d][1,2,3]triazol-2-yl)methyl]-1-[3-(N,N-diethylamino)propyl]-1H-benzo[d]imidazol-5-yl}ethylidene)hydrazine-1-carbothioamide [Compound 21]
[3]
  Anti-RSV activity (in words): inactive

## CC(=NNC(N)=S)c1ccc2c(c1)nc(Cc1ccc(Cl)cc1)n2CCCN(C)C [Compound 4, 2-{1-[2-(4-Chlorobenzyl)-1-[3-(N,N-dimethylamino)propyl]-1H-benzo[d]imidazol-5-yl]-ethylidene}hydrazine-1-carbothioamide]
[3]
  Anti-RSV activity (in words): poorly effective; also recorded: inactive
other
  melting point: 110 to 111 °C

## CCN(CC)CCCn1c(Cc2ccccc2)nc2cc(C(C)=NNC(N)=S)ccc21 [Compound 8, 2-(1-{2-Benzyl-1-[3-(N,N-diethylamino)propyl]-1H-benzo[d]imidazol-5-yl}ethylidene)-hydrazine-1-carbothioamide]
Human coronavirus 229E; [10]
  EC50: 56 µM
In vitro [5]
  CC50: > 100 µM
In vitro [6]
  CC50: > 100 µM
[2]; Influenza A virus, H3N2, MDCK
  EC50: > 100 µM
[3]; [11]
  EC50: > 100 µM
[4]; Influenza A virus, H1N1, MDCK
  EC50: 38 µM
In vitro [7]
  CC50: > 100 µM
In vitro [8]
  CC50: 44 µM

## CCN(CC)CCCn1c(Cc2ccccc2)nc2cc(C(C)=NNC(N)=O)ccc21 [Compound 16, 2-(1-{1-[3-(N,N-Diethylamino)propyl]-2-benzyl-1H-benzo[d]imidazol-5-yl}ethylidene)-hydrazine-1-carboxamide]
Human coronavirus 229E; [10]
  EC50: 39 µM
In vitro [5]
  CC50: > 100 µM
In vitro [6]
  CC50: > 100 µM
[2]; Influenza A virus, H3N2, MDCK
  EC50: > 100 µM
[3]; [11]
  EC50: > 100 µM
[4]; Influenza A virus, H1N1, MDCK
  EC50: 47 µM
In vitro [7]
  CC50: > 100 µM
In vitro [8]
  CC50: > 100 µM

## CCN(CC)CCCn1c(Cc2ccc(OC)cc2)nc2cc(C(C)=NNC(N)=O)ccc21 [Compound 17, 2-(1-{1-[3-(N,N-Diethylamino)propyl]-2-(4-methoxybenzyl)-1H-benzo[d]imidazol-5-yl}-ethylidene)hydrazine-1-carboxamide]
Human coronavirus 229E; [10]
  EC50: 41 µM
In vitro [6]
  CC50: > 100 µM
[2]; Influenza A virus, H3N2, MDCK
  EC50: > 100 µM
[3]; [11]
  EC50: > 100 µM
[9]
  Cytotoxicity (in words): produced cytotoxicity in two of the four cell lines
[4]; Influenza A virus, H1N1, MDCK
  EC50: 47 µM
In vitro [8]
  CC50: 43 µM
other
  melting point: 190 to 192 °C

## CC(=NNC(N)=S)c1ccc2c(c1)nc(Cn1nc3ccccc3n1)n2CCCN(C)C [Compound 19, 2-(1-{2-[(2H-Benzo[d][1,2,3]triazol-2-yl)methyl]-1-[3-(N,N-dimethylamino)propyl]-1H-benzo[d]imidazol-5-yl}ethylidene)hydrazine-1-carbothioamide]
[3]
  Anti-RSV activity (in words): inactive
other
  melting point: 212 to 214 °C

## NC(=O)c1ncn([C@@H]2O[C@H](CO)[C@@H](O)[C@H]2O)n1 [Ribavirin, reference compound]
[2]; Influenza A virus, H3N2, MDCK
  EC50: 7.5 µM
[3]; [11]
  EC50: 6.7 µM
[4]; Influenza A virus, H1N1, MDCK
  EC50: 7.4 µM
In vitro [7]
  CC50: > 250 µM
In vitro [8]
  CC50: > 250 µM

## CC(=O)N[C@H]1[C@H]([C@H](O)[C@H](O)CO)OC(C(=O)O)=C[C@@H]1N=C(N)N [Zanamivir, reference compound]
In vitro [6]
  CC50: > 100 µM
[2]; Influenza A virus, H3N2, MDCK
  EC50: 31 µM
[4]; Influenza A virus, H1N1, MDCK
  EC50: 0.6 µM

## dextran sulfate MW 10,000 [DS-10,000, reference compound]
[3]
  Antiviral EC50 RSV: 0.01 µg/mL

B1: UDA: UDA lectin, reference in the coronavirus 229E assay (protein, UniProt P11218 24-372, looked up)
Lectin/endochitinase 1: QRCGSQGGGGTCPALWCCSIWGWCGDSEPYCGRTCENKCWSGERSDHRCGAAVGNPPCGQDRCCSVHGWCGGGNDYCSGSKCQYRCSSSVRGPRVALSGNSTANSIGNVVVTEPLFDQMFSHRKDCPSQGFYSYHSFLVAAESFPAFGTIGDVATRKREVAAFLAHISQATSGERSDVENPHAWGLCHINTTTVTENDFCTSSDWPCAAGKKYSPRGPIQLTHNFNYGLAGQAIGEDLIQNPDLVEKDPIISFKTALWFWMSQHDNKPSCHDIVLNANSAANRIPNKGVIGNIISRAFGHDDFAVRSSSIGFYKRYCDMLGVSYGHDLKYWFDNTPSSEFQRIQMRVAA
HEL cells
  CC50 HEL: >100 µg/mL
Human coronavirus 229E
  Antiviral EC50 Coronavirus 229E: 2.2 µg/mL
